According to patent publication US10683269B2 (MISSION THERAPEUTICS LIMITED, priority 2016, dated 2020):

Biological target: T1, USP7 (Homo sapiens, UniProt Q93009)
T1 construct: The USP7 construct was PCR amplified and cloned into a pFLAG-CMV-6a vector (Sigma-Aldrich) with an N-terminal FLAG tag; made in house; host or cells: HEK293T
Assay: USP7 biochemical IC50 assay (fluorescence polarisation, TAMRA labelled peptide linked to ubiquitin via an iso-peptide bond)
Conditions: 30 min pre-incubation of enzyme and compound, read after 2 hr incubation at room temperature, read-out: IC50 range
Experimental: In Vitro USP7 Inhibition Assay
Expression and Purification of USP7
The USP7 construct was PCR amplified and cloned into a pFLAG-CMV-6a vector (Sigma-Aldrich) with an N-terminal FLAG tag. HEK293T cells were transfected with FLAG-USP7 using TransIT-LT1 transfection reagent (Mirus) according to the manufacturer's instructions. Cells were harvested 40 hours after transfection. […] The resin was washed two times with low salt buffer plus protease inhibitors (complete mini, Roche) and phosphatase inhibitors (PhosSTOP mini, Roche) and one time with high salt buffer (20 mM Tris, pH 7.5, 500 mM NaCl, 0.5 mM EDTA, 5 mM beta-mercaptoethanol, protease inhibitors (complete mini, Roche) and phosphatase inhibitors (PhosSTOP mini, Roche). To elute the bound USP7, elution buffer (10 mM Tris, pH 7.5, 150 mM NaCl, 0.5 mM EDTA, 10% glycerol, 0.5% NP40, 5 mM beta-mercaptoethanol, 0.15 mg/ml 3×FLAG peptide (Sigma-Aldrich)) was added to the resin and incubated at 4° C. for 2.5 hours rotating. The resin was centrifuged at 4000 rpm for 30 seconds, and the supernatant containing purified FLAG-USP7 was removed and stored at −80° C.
USP7 Biochemical IC50 Assay
A typical 8-point dilution series would be 100, 30, 10, 3, 1, 0.3, 0.1, 0.03 μM final. […] Either 1 μl of 50% DMSO or diluted compound was added to the plate. USP7 was diluted in reaction buffer (20 mM Tris, pH 7.5, 100 mM NaCl, 0.05% Tween 20, 0.5 mg/ml BSA, 5 mM—beta mercaptoethanol) to the equivalent of 0.0025 μl/well and 10 μl of diluted USP7 was added to the compound. Enzyme and compound were incubated for 30 min at room temp. Reactions were initiated by the addition of 50 nM of TAMRA labelled peptide linked to ubiquitin via an iso-peptide bond as fluorescence polarisation substrate. Reactions were read immediately after addition of substrate and following a 2 hr incubation at room temperature. Readings were performed on a Pherastar Plus (BMG Labtech). λ Excitation 540 nm; λ Emission 590 nm.

T1 sequence (Q93009 whole entry): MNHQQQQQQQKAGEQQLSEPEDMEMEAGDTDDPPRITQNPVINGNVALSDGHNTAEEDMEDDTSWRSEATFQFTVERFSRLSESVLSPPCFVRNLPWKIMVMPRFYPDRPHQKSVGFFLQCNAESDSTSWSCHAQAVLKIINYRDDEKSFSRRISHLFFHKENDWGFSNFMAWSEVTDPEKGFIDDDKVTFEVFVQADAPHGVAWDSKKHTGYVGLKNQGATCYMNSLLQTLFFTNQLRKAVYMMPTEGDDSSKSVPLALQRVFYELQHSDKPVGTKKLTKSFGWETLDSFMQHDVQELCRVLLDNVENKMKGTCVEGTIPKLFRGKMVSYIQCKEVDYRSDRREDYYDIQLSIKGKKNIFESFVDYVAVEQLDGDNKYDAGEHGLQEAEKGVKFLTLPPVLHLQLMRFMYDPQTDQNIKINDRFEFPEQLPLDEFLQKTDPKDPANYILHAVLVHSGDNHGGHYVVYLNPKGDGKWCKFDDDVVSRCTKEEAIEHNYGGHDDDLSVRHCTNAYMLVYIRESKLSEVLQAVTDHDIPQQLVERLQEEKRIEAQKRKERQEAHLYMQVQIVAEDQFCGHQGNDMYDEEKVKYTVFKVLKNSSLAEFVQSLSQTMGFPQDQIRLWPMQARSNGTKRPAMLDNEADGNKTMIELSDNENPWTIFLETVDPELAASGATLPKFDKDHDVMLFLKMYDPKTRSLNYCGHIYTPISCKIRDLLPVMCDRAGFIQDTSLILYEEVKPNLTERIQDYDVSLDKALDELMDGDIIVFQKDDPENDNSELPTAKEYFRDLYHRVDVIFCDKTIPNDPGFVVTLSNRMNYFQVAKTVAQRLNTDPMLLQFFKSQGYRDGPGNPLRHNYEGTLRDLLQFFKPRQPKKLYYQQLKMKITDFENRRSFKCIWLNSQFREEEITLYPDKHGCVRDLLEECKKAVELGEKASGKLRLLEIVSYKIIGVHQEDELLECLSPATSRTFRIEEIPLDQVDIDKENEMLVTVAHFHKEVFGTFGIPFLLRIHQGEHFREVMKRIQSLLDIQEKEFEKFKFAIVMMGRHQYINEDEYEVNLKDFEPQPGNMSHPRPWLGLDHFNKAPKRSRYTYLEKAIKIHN

Row | Structure (SMILES) | IC50 [µM]
1 | Cc1ccccc1-c1cc(C(=O)Nc2cccc3c2CN(C#N)C3)[nH]n1 [Example 83, N-(2-cyanoisoindolin-4-yl)-3-(o-tolyl)-1H-pyrazole-5-carboxamide] | 10 to 30
2 | N#CN1Cc2cccc(NC(=O)c3csc(-c4ccccc4)n3)c2C1 [Example 84, N-(2-cyanoisoindolin-4-yl)-2-phenylthiazole-4-carboxamide] | 10 to 30
3 | COCc1ccc(C(=O)Nc2cccc3c2CN(C#N)C3)cc1 [Example 88, N-(2-cyanoisoindolin-4-yl)-4-(methoxymethyl)benzamide] | 10 to 30
4 | N#CN1Cc2cccc(NC(=O)c3ccc(S(=O)(=O)Nc4ccccc4)cc3)c2C1 [Example 92, N-(2-cyanoisoindolin-4-yl)-4-(N-phenylsulfamoyl)benzamide] | 1 to 10
5 | N#CN1Cc2cccc(NC(=O)c3ccc(N4CCOCC4)s3)c2C1 [Example 93, N-(2-cyanoisoindolin-4-yl)-5-morpholinothiophene-2-carboxamide] | 1 to 10
6 | CN1CCC(C(=O)Nc2ccc3c(c2)CN(C#N)C3)C1 (stereo not shown) [Example 94, N-(2-cyanoisoindolin-5-yl)-1-methylpyrrolidine-3-carboxamide] | 1 to 10
7 | N#CN1Cc2cccc(C(=O)NCc3ccccc3)c2C1 [Example 95, N-benzyl-2-cyanoisoindoline-4-carboxamide] | 10 to 30
8 | CC(=O)Nc1ccc2c(c1-c1ccccc1)CN(C#N)C2 [Example 96, N-(2-cyano-4-phenylisoindolin-5-yl)acetamide] | 1 to 10
9 | Cn1cc(-c2nnc(-c3ccccc3)c3c2CN(C#N)C3)cn1 [Example 97, 1-(1-methyl-1H-pyrazol-4-yl)-4-phenyl-5,7-dihydro-6H-pyrrolo[3,4-c]pyridazine-6-carbonitrile] | 10 to 30
10 | COC(=O)c1cc2c(c(-c3ccccc3)c1)CN(C#N)C2 [Example 98, methyl 2-cyano-7-phenylisoindoline-5-carboxylate] | 1 to 10
11 | N#CN1Cc2ncnc(N3CCN(c4ccc(F)cc4F)CC3)c2C1 [Example 99, 4-(4-(2,4-difluorophenyl)piperazin-1-yl)-5H-pyrrolo[3,4-d]pyrimidine-6(7H)-carbonitrile] | 10 to 30
12 | N#CN1Cc2ncnc(N3Cc4ccccc4C3)c2C1 [Example 100, 4-(isoindolin-2-yl)-5,7-dihydro-6H-pyrrolo[3,4-c]pyrimidine-6-carbonitrile] | 1 to 10
13 | N#CN1Cc2ncnc(N3CCC(Oc4cccnc4)CC3)c2C1 [Example 101, 4-(4-(pyridin-3-yloxy)piperidin-1-yl)-5,7-dihydro-6H-pyrrolo[3,4-c]pyrimidine-6-carbonitrile] | 10 to 30
14 | COc1cccc(OC2CCN(c3ncnc4c3CN(C#N)C4)CC2)c1 [Example 102, 4-(4-(3-methoxyphenoxy)piperidin-1-yl)-5,7-dihydro-6H-pyrrolo[3,4-d]pyrimidine-6-carbonitrile] | 1 to 10
15 | N#CN1Cc2ncnc(N3CCC(Oc4ccccc4C(N)=O)CC3)c2C1 [Example 103, 2-((1-(6-cyano-6,7-dihydro-5H-pyrrolo[3,4-d]pyrimidin-4-yl)piperidin-4-yl)oxy)benzamide] | 10 to 30
16 | CC(=O)Nc1nc2c(c(-c3ccccc3)n1)CN(C#N)C2 [Example 104, N-(6-cyano-4-phenyl-6,7-dihydro-5H-pyrrolo[3,4-c]pyrimidin-2-yl)acetamide] | 1 to 10
17 | CC(=O)Nc1nc2c(c(-c3cccc(C#N)c3)n1)CN(C#N)C2 [Example 105, N-(6-cyano-4-(3-cyanophenyl)-6,7-dihydro-5H-pyrrolo[3,4-c]pyrimidin-2-yl)acetamide] | 1 to 10
18 | CC(=O)Nc1nc2c(c(-c3cccc(OC(F)(F)F)c3)n1)CN(C#N)C2 [Example 106, N-(6-cyano-4-(3-(trifluoromethoxy)phenyl)-6,7-dihydro-5H-pyrrolo[3,4-d]pyrimidin-2-yl)acetamide] | 1 to 10
19 | CC(=O)Nc1nc2c(c(-c3cnn(C)c3)n1)CN(C#N)C2 [Example 107, N-(6-cyano-4-(1-methyl-1H-pyrazol-4-yl)-6,7-dihydro-5H-pyrrolo[3,4-d]pyrimidin-2-yl)acetamide] | 10 to 30
20 | CC(=O)Nc1cccc(-c2nc(NC(C)=O)nc3c2CN(C#N)C3)c1 [Example 108, N-(3-(2-acetamido-6-cyano-6,7-dihydro-5H-pyrrolo[3,4-d]pyrimidin-4-yl)phenyl)acetamide] | 1 to 10
21 | CC(=O)Nc1nc2c(c(-c3cccc(NS(C)(=O)=O)c3)n1)CN(C#N)C2 [Example 109, N-(6-cyano-4-(3-(methylsulfonamido)phenyl)-6,7-dihydro-5H-pyrrolo[3,4-d]pyrimidin-2-yl)acetamide] | 1 to 10
22 | N#CN1Cc2nc(N[C@H]3CC[C@H](O)CC3)nc(-c3ccccc3)c2C1 [Example 110, 2-(((1R,4R)-4-hydroxycyclohexyl)amino)-4-phenyl-5H-pyrrolo[3,4-d]pyrimidine-6(7H)-carbonitrile] | 1 to 10
23 | N#CN1Cc2nc(NCC3CCOCC3)nc(-c3ccccc3)c2C1 [Example 111, 4-phenyl-2-(((tetrahydro-2H-pyran-4-yl)methyl)amino)-5,7-dihydro-6H-pyrrolo[3,4-d]pyrimidine-6-carbonitrile] | 1 to 10
24 | Cn1cc(Nc2nc3c(c(-c4ccccc4)n2)CN(C#N)C3)cn1 [Example 112, 2-((1-methyl-1H-pyrazol-4-yl)amino)-4-phenyl-5,7-dihydro-6H-pyrrolo[3,4-d]pyrimidine-6-carbonitrile] | 1 to 10
25 | N#CN1Cc2nc(NCc3ncccn3)nc(-c3ccccc3)c2C1 [Example 113, 4-phenyl-2-((pyrimidin-2-ylmethyl)amino)-5,7-dihydro-6H-pyrrolo[3,4-d]pyrimidine-6-carbonitrile] | 1 to 10

Results, then the molecule that gave them:

Row | IC50 [µM] | Structure (SMILES)
26 | 1 to 10 | CC(NC(=O)c1cccc(-c2cccc3c2CN(C#N)C3)c1)c1ccccc1 (stereo not shown) [Example 74, 3-(2-cyanoisoindolin-4-yl)-N-(1-phenylethyl)benzamide]
27 | 1 to 10 | N#CN1Cc2cccc(-c3cccc(C(=O)Nc4ccccc4)c3)c2C1 [Example 75, 3-(2-cyanoisoindolin-4-yl)-N-phenylbenzamide]
28 | 1 to 10 | C[C@@H](NC(=O)c1cccc(-c2cccc3c2CN(C#N)C3)c1)c1ccccc1 [Example 76, (R)-3-(2-cyanoisoindolin-4-yl)-N-(1-phenylethyl)benzamide]
29 | 1 to 10 | N#CN1Cc2cccc(-c3ccccc3C(=O)NCCN)c2C1 [Example 77, N-(2-aminoethyl)-2-(2-cyanoisoindolin-4-yl)benzamide]
30 | 1 to 10 | N#CN1Cc2cccc(-c3ccccc3C(=O)N3CCNCC3)c2C1 [Example 78, 4-(2-(piperazine-1-carbonyl)phenyl)isoindoline-2-carbonitrile]
31 | 1 to 10 | N#CN1Cc2cccc(-c3ccnc(C(=O)NCc4ccccc4)c3)c2C1 [Example 79, N-benzyl-4-(2-cyanoisoindolin-4-yl)picolinamide]
32 | 1 to 10 | N#CN1Cc2cccc(NC(=O)c3cccc(NC(=O)C4CC4)c3)c2C1 [Example 80, N-(2-cyanoisoindolin-4-yl)-3-(cyclopropanecarboxamido)benzamide]
33 | 1 to 10 | N#CN1Cc2cccc(NC(=O)c3ccc(-c4cccnc4)cc3)c2C1 [Example 81, N-(2-cyanoisoindolin-4-yl)-4-(pyridin-3-yl)benzamide]
34 | 1 to 10 | N#CN1Cc2cccc(NC(=O)c3ccc(-c4ccncc4)cc3)c2C1 [Example 82, N-(2-cyanoisoindolin-4-yl)-4-(pyridin-4-yl)benzamide]
35 | 1 to 10 | COc1cc2cc(C(=O)Nc3cccc4c3CN(C#N)C4)[nH]c2cn1 [Example 85, N-(2-cyanoisoindolin-4-yl)-5-methoxy-1H-pyrrolo[2,3-c]pyridine-2-carboxamide]
36 | 1 to 10 | N#CN1Cc2cccc(NC(=O)c3cc(-c4cnccn4)[nH]n3)c2C1 [Example 86, N-(2-cyanoisoindolin-4-yl)-5-(pyrazin-2-yl)-1H-pyrazole-3-carboxamide]
37 | 1 to 10 | N#CN1Cc2cccc(NC(=O)c3ccc(=O)n(Cc4ccccc4)c3)c2C1 [Example 87, 1-benzyl-N-(2-cyanoisoindolin-4-yl)-6-oxo-1,6-dihydropyridine-3-carboxamide]
38 | 1 to 10 | COC(=O)Nc1cccc(C(=O)Nc2cccc3c2CN(C#N)C3)c1 [Example 89, methyl (3-((2-cyanoisoindolin-4-yl)carbamoyl)phenyl)carbamate]
39 | 1 to 10 | N#CN1Cc2cccc(NC(=O)c3cccc(NC(=O)c4ccccc4)c3)c2C1 [Example 90, 3-benzamido-N-(2-cyanoisoindolin-4-yl)benzamide]
40 | 1 to 10 | N#CN1Cc2cccc(NC(=O)c3ccc(CNC(=O)OCc4ccccc4)cc3)c2C1 [Example 91, benzyl (4-((2-cyanoisoindolin-4-yl)carbamoyl)benzyl carbamate]
